From PubChem BioAssay AID179 (DTP/NCI, 2004)
Active and inactive are the calls of the source.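 The calls were made as follows: active = compounds giving half or more protection of infected cells from virus-caused growth loss, again on retest; inactive = the rest.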 Where a SMILES comes first, the peptide text is derived from it. [ ]: non-standard residue; d: D form. The star is where a group is joined. NMeAc5c = CNC1(C(=O)O)CCCC1; Boc = CC(C)(C)OC(=O)*; OBn = c1ccc(CO*)cc1

System: CEM cells HIV-1 protection, formazan growth assay
Assay: NCI AIDS Antiviral Assay
Conditions: for IC50: measured here: growth of uninfected CEM cells
In short: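 Five concentrations of each compound were applied to infected and uninfected human CEM cells. Protection from HIV-1 was judged from growth measured with a soluble formazan assay.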

Compound	EC50	IC50	outcome
[C-]#[O+].[C-]#[O+].[C-]#[O+].[C-]#[O+].[C-]#[O+].[Mo+2].[Mo+4].[c-]1[c-][c-][cH-][c-]1.[c-]1[c-][c-][cH-][c-]1.c1ccc([PH+](CC[PH+](c2ccccc2)c2ccccc2)c2ccccc2)cc1	> 4.37 µM	2.69 µM	
CN(C)CCN(C)CCN(C)C.Cc1ccc(S(=O)(=O)[O-])cc1.Cc1ccc(S(=O)(=O)[O-])cc1.[Pd+2]	> 200 µM	10.7 µM	
CCN1CCNc2c3cc(OC)ccc3nc3c([N+](=O)[O-])ccc1c23	> 200 µM	0.11 µM	
CCN1C(NN)=NS(=O)(=O)c2ccccc21	> 200 µM	> 200 µM	
Oc1cc(O)c2c(c1)O[C@H](c1cc(O)c(O)c(O)c1)[C@@H](O)C2	> 200 µM	0.603 µM	
S=C(N/N=C(/c1ccccc1)c1ccccn1)Nc1ccccc1Cl	> 0.2 µM	0.0871 µM	
Nc1[nH]c(=O)nc2snnc12	> 200 µM	4.79 µM	
CN(C)/C=N\c1nncc2[nH]cnc12	> 200 µM	15.1 µM	
Cc1cn(C2CC(N=[N+]=[N-])C(COC(=O)CCCCCCCCCc3ccccc3)O2)c(=O)[nH]c1=O (stereo not given)	0.129 µM	110 µM	
Cc1ccccc1-n1c(=S)n(-c2ccc(Cl)cc2)c2nc3ccccc3nc1/c2=N/Nc1cc(Cl)ccc1Cl	> 200 µM	174 µM	
CC(=O)NNc1nc(C)c(C(/C=C/c2ccc(Cl)cc2)=N/NC(=S)NN)s1	> 44.7 µM	> 44.7 µM	
CN(C(=O)C(Cc1ccccc1)NC(=O)OC(C)(C)C)C1(C(=O)NC(Cc2ccccc2)C(=O)OCc2ccccc2)CCCC1 (stereo not drawn) (Boc-Phe-[NMeAc5c]-Phe-OBn; configuration not given here)	> 200 µM	11 µM	
CCC1OC2C(CC=C(C)C)=C3OC(C)(O)C(C)(CC)C(OC(=O)c4ccccc4)C3=C3OC(=O)C=C1C32 (stereo not given)	> 200 µM	18.6 µM	
Cc1nn(C(=O)c2c(O)cccc2Br)c(C)c1N=Nc1ccccc1			inactive
O=c1[nH]c(=O)n2c3c1ncn3CC=CC2	> 35.5 µM	17 µM	
CC1(C)C=N[N+]2(C)C3C=CC(CC3)C12 (stereo not given)			inactive
CCN(CC)C(=O)Cc1c(C(=O)N(CC)CC)c(=O)nc2sccn12	> 692 µM	> 692 µM	
CC(=O)NC1CCC(NC(=O)OC(C)(C)C)C(NC(=O)OC(C)(C)C)C1 (stereo not given)	> 200 µM	> 200 µM	
Fc1cccc(C2SCc3nc4ncccc4n32)c1 (stereo not given)	> 132 µM	> 132 µM	
Cc1nc(-c2ccc(Cl)cc2)cn2c1nc1ccccc12	61.7 µM	191 µM	
CC12CCCC(C(=O)O)(C1)[C@H](C(C)(C)C(=O)O)CC2 (stereo not given in full)	> 200 µM	> 200 µM	

Compound	EC50	IC50	outcome
CCOC(=O)n1c2ccccc2c(=O)n1CCO	> 200 µM	> 200 µM	
O=[N+]([O-])/C(C(Cl)=C(Cl)Cl)=C1\Nc2ccccc2O1	> 200 µM	97.7 µM	
CC12c3c4ccc(C=O)c3Oc3ccc(C=O)c(c31)Oc1ccc(C=O)c(c12)O4	> 25.1 µM	13.5 µM	
Clc1cc2nc(C3CCCO3)[nH]c2cc1Cl (stereo not given)	> 200 µM	66.1 µM	
COC1O[C@H]2CCN(C(=O)OCc3ccccc3)[C@H]2[C@H]1OCc1ccccc1 (stereo not given in full)	> 35.5 µM	> 35.5 µM	
CC1=C(O[Si](C(C)C)(C(C)C)C(C)C)C2CC1[C@@H]1C(=O)N(c3ccccc3)C(=O)[C@H]21 (stereo not given in full)	> 6.46 µM	> 6.46 µM	
COc1ccc(-c2cc(=O)c3c(O)cc(O)cc3o2)cc1OC	> 70.8 µM	> 70.8 µM	
N=C1C=CC2C(=Nc3ccccc3[N+]2=O)N1Cc1ccncc1 (stereo not given)	> 22.4 µM	21.4 µM	
COc1cc(O)c2c(=O)oc3cc(O)cc(C)c3c2c1	> 34.7 µM	> 34.7 µM	
Cc1cc(N(CCC#N)S(=O)(=O)c2ccccc2)ccc1C=Nc1ccc(C(=O)O)cc1	> 151 µM	85.1 µM	
O=c1cc(-c2ccc(Cl)cc2)oc2cc(OCCCOc3ccc4c(=O)cc(-c5ccc(Cl)cc5)oc4c3)ccc12	> 0.646 µM	> 0.646 µM	
CCCCc1ccc(Nc2nc3c(ncn3C3CC(O)C(CN=[N+]=[N-])O3)c(=O)[nH]2)cc1 (stereo not given)	> 200 µM	> 200 µM	
O=C(O)CN(CCNC(=O)OCC1c2ccccc2-c2ccccc21)CCNC(=O)OCC1c2ccccc2-c2ccccc21	> 200 µM	39.8 µM	
C/C(O)=C(\C=N\C(N)=S)C(=O)Nc1ccccc1	> 200 µM	> 200 µM	
C=C1[C@H]2C(=O)[C@H]3[C@@H]4N(C)C5CC3([C@@H]1OC(C)=O)[C@@H](C2OC(C)=O)C41[C@H](OC(C)=O)C(OC(=O)c2ccccc2)C[C@@](C)(C=O)[C@@H]51 (stereo not given in full)			inactive
CC(=O)NC1C(=O)N(Cc2ccccc2)[C@@H]1COC(C)(C)C (stereo not given in full)	> 813 µM	> 813 µM	
CC1(C(=O)Nc2ccc3ccccc3c2)CC2(C)CC(C)(C1)C(O)NC2=O (stereo not given)			inactive
O=C(Nc1ccccc1)c1cc2cc(O)c(O)cc2cn1	> 158 µM	7.41 µM	
Cc1ccnc(NC(=O)Nc2ccc(C)cc2[N+](=O)[O-])c1	> 200 µM	> 200 µM	
Cc1ccc2nc(-c3ccc4nc(-c5ccc(N=Nc6ccc(-c7nc8ccc(-c9nc%10ccc(C)c(S(=O)(=O)O)c%10s9)cc8s7)cc6)cc5)sc4c3)sc2c1S(=O)(=O)O	19.5 µM	> 200 µM	
COC(=O)c1cc(C(=C(Cl)Cl)c2cc(C(=O)OC)c(OC)c(Br)c2C)c(C)c(Br)c1OC	> 200 µM	79.4 µM	

Compound	EC50	IC50	outcome
CC(C)(C)c1ccc(OP(=S)(NN)Oc2ccc(C(C)(C)C)cc2)cc1	> 61.7 µM	30.2 µM	
CC(=O)O[C@@H]1C(C2CCCCC2)C=[N+]([O-])O[C@@H]1OC1CCCC1(c1ccccc1)c1ccccc1 (stereo not given in full)	> 200 µM	1.7 µM	
CC1OC(c2ccc3c(OCc4ccccc4)cccc3c2O)CC(OCc2ccccc2)[C@H]1OCc1ccccc1 (stereo not given in full)	> 200 µM	> 200 µM	
Cc1c(C(=N)C(C#N)C#N)c(=N)oc2c1ccc1ccccc12	> 200 µM	26.9 µM	
COCC(C)(C)N=CN1CCc2cc(OC)c(OC)cc2C1	> 813 µM	> 813 µM	
COc1ccccc1/C=C(\C#N)C(=O)O	> 646 µM	251 µM	
Cn1cc(C(=O)c2ccccc2)ccc1=O	> 617 µM	479 µM	
O=c1ccc2cc(O)c(O)cc2o1	> 1410 µM	93.3 µM	
O=C1NC2C3CC(c4ccccc43)C12 (stereo not given)	> 832 µM	> 832 µM	
COc1ccc2nc3ccc(OC)cc3c(SCc3ccc([N+](=O)[O-])cc3)c2c1	> 200 µM	> 200 µM	
O=c1c2cnccc2cc2c3ccccc3ccn12	> 200 µM	7.41 µM	
O=C(Nc1ccc(O)cc1)C(Cl)(Cl)Cl	> 200 µM	39.8 µM	
S=c1nc(N2CCCCC2)ss1			inactive
Cc1cccc2oc3c(CC(=O)O)cccc3c(=O)c12	> 200 µM	> 100 µM	
N/N=C1\C(=O)N(c2ccc(Cl)cc2Cl)C(=O)C(=O)C1c1nc2ccccc2o1 (stereo not given)			inactive
COC(=O)CC12C=CC3(OO1)C(C)(C)CCCC3(C)O2 (stereo not given)	> 200 µM	174 µM	
COC(=O)c1cc(CN(C)C)c(O)c(CN(C)C)c1	> 200 µM	> 200 µM	
Cc1ccc(N=Nc2c(C)c(C#N)c(=S)n(C3OC(CO)C(O)C(O)C3O)c2C)cc1 (stereo not given)	> 200 µM	19.1 µM	
CC(C)=CC[P+](c1ccccc1)(c1ccccc1)c1ccccc1	> 200 µM	2.09 µM	
ClC(Cl)(Cl)SSC(=Nc1ccccc1)SSC(Cl)(Cl)Cl	> 200 µM	4.79 µM	
CC(=O)C(=Cc1ccc(Br)cc1)C(C)=O	> 51.3 µM	27.5 µM	

Compound	EC50	IC50	outcome
C#CCn1c(=O)c2cc(OC)c(OC)cc2n(CC#C)c1=O			inactive
Cc1ccc(-n2cc([Si](C)(C)C)nn2)s1	> 200 µM	123 µM	
O=c1cc(N=Nc2ccc(Cl)cc2)[nH]c(=O)[nH]1	> 2 µM	0.851 µM	
CC1CN(C2C=CC(=O)CC2)C(=O)NC1=O (stereo not given)	> 1120 µM	7.76 µM	
CC(C)OC(=O)NCCn1cc(-c2ccccc2)nn1	> 200 µM	> 200 µM	
O=c1c2ccccc2sc2cccc(NCCCN3CCN(CCCNc4cccc5sc6ccccc6c(=O)c45)CC3)c12	> 100 µM	> 100 µM	
Clc1ccc(C2ON=C(c3ccccc3)N2C23CC4CC(CC(C4)C2)C3)cc1 (stereo not given)	> 200 µM	> 200 µM	
C=C(C)Cn1c(=O)n(CC(=C)C)c(=O)n(CC(=C)C)c1=O	> 200 µM	81.3 µM	
CC(C)(C)[Si](C)(C)OCC1OC(n2ccc(=O)[nH]c2=O)C(O[Si](C)(C)C(C)(C)C)[C@@]12O[C@H]2C(N)=O (stereo not given in full)	> 200 µM	7.76 µM	
CCC1(c2ccccc2)NC(=O)N(C)C1=O (stereo not given)	> 200 µM	> 200 µM	
COc1ccc2nc(/C(N)=C\C#N)ccc2c1	> 200 µM	41.7 µM	
Nc1nc(N)c(N=Nc2ccc(S(=O)(=O)NC(=O)c3ccccc3)cc2)c(=O)[nH]1	> 200 µM	> 200 µM	
CN1CC[C@]2(C)c3cc(O)ccc3CC3CCCC1C32C (stereo not given in full)			inactive
O=[N+]([O-])c1cccc(C2ON2C2CCCCC2)c1 (stereo not given)	> 89.1 µM	5.01 µM	
c1ccc2c(c1)[nH]c1c3ccccc3sc21	> 200 µM	> 200 µM	
CC1=NC(C)=C(/C(C)=N/NC(=O)c2ccccc2O)C(C)/C1=C(/C)NNC(=O)c1ccccc1O (stereo not given)	> 186 µM	8.71 µM	
C=C(C)C(C(=O)OC(c1ccccc1)c1ccccc1)N1C(=O)C(NC(=O)COc2ccccc2)C1SSC(C)(C)C (stereo not given)	> 200 µM	72.4 µM	
N#CC1(C=O)c2ccccc2C=CN1C(=O)c1ccccc1 (stereo not given)	> 91.2 µM	> 91.2 µM	
C[C@@H]1S[C@H](c2c(F)cccc2F)n2c1nc1ccccc12	29.5 µM	43.7 µM	
N#CC12COC3(CCCCC3C1(C#N)C#N)OC2=N (stereo not given)	> 200 µM	3.98 µM	
N#Cc1cnn2ccn(C3OC(COC(=O)c4ccccc4)C(OC(=O)c4ccccc4)C3OC(=O)c3ccccc3)c12 (stereo not given)	> 200 µM	> 200 µM	
